Experimental data published in US9687553B2, “Polymeric nanocarriers with linear dual response mechanism” (priority 2010, dated 2017).

Tests used:
[1] = Relaxivity versus time, bench top contrast agent analyzer; assay type: physicochemical
From the text: To probe the relationship between degradation and relaxivity further, real-time T1 measurements were taken of the polymer solutions using a Bruker minispec mq60 bench top contrast agent analyzer. This machine is able to take rapid T1 measurements over a long duration, allowing for real-time data to be collected. Following data collection, a relationship between T1 and relaxivity can be made, and the relaxivity can be plotted versus time. The relaxivity measurements were then normalized for direct comparison between the two polymer CAs.
Samples were first incubated at 37° C. and various pH values and then measured continuously over time.
To investigate the change in relaxivity over time at different pH values further, continuous T1 measurements were taken using a bench top contrast agent analyzer. Using this machine, the T1 time of a 200 μl solution in an NMR tube is able to be measured. Furthermore, the measurement duration is short, allowing for a more real-time investigation of the T1 time. Finally, the software allows for sequential measurements to be performed, allowing for over 24 h of continuous T1 data to be taken.
Solutions of both polymer contrast agents were prepared at the desired pH values and pre-incubated for 5 min at 37° C. prior to T1 measurements. […]

[2] = Gd chelate; cited from earlier work
HCT116 cells = assay: Transfection and EGFP expression, microscopy and flow cytometry; assay type: cell-based; conditions: 300 nM bafilomycin A1, nanocarrier delivery
Experimental: Expression and transfection efficiency of the HCT116 cells was tested by incubating them for 4 hr before washing excess nanocarriers and incubating cells in fresh media for 48 hr. […] PLGA-treated cells only had 2% of the cell population with signal intensity above background.
Immediate burst degradation and release of DNA from the dual pH-responsive nanocarriers only occurs in an environment of low pH. The endosome's low pH offers the appropriate stimulus to solubilize the polymer, resulting in an accelerated degradation via ketal hydrolysis. Bafilomycin A1, an inhibitor of V-ATPase, blocks the acidification of endosomes and has been previously used to characterize the mechanism of release of pH dependent polyplexes and nanocarriers. […] EGFP expression via nanocarrier delivery in HCT116 cells, measured by mean fluorescence, was affected by the presence of bafilomycin A1, causing 66% reduction in signal relative to non-treated cells (FIG. 37). […]
HCT116 cells were plated at a ˜50% density in a 24 well culture plate and allowed to attach overnight. […] The cells were then incubated for 48 hours and subsequently analyzed by fluorescence microscopy (Nikon) or flow-cytometry (Accuri C6) to detect green fluorescence. […] For flow cytometry, cells were first trysonized for […] followed by two washes with PBS and analyzed immediately. […]

Compound	relaxivity as measured [1] [mM⁻¹ s⁻¹]	stability constant (log K) [2]	reduction in EGFP signal (mean fluorescence) relative to non-treated cells (HCT116 cells) [%]
O=C([O-])CN(CCN(CC(=O)[O-])CC(=O)O)CCN(CC(=O)[O-])CC(=O)O.[Gd+3] [Gd-DTPA]	3.64 ± 0.12	22.46	
Gd-DTPA-bisamide		16.84	
CO/C1=C\C(C)=C\[C@@H](C)[C@@H](O)[C@@H](C)C/C(C)=C/C=C/[C@H](OC)[C@@H]([C@@H](C)[C@@H](O)[C@H](C)[C@@]2(O)C[C@@H](O)[C@H](C)[C@@H](C(C)C)O2)OC1=O [bafilomycin A1]			66
